Assay results reported in publication PMC11167047 (Cell Death Discovery, 2024).

Columns and labels:
Experiment in all cases: kinome screen (33PanQinase)
Type in all cases: biochemical
[1] = molecular target: T1, AuroraC (Homo sapiens, UniProt Q9UQB9)
T1 construct: purchased Reaction Biology Europe GmbH (formerly ProQinase)
T1 sequence (Q9UQB9 1-309): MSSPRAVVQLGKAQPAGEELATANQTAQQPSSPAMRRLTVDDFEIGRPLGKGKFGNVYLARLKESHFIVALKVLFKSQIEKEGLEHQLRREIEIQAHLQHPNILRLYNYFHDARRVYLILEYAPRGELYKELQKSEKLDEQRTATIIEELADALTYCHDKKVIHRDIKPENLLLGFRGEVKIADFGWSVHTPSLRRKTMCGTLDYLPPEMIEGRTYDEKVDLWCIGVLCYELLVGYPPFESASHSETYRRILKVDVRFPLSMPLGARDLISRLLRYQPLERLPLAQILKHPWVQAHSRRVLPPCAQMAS
Protocol: (§1) The Kinome Screening was performed by Reaction Biology Europe GmbH (http://reactionbiology.com; Freiburg i. Br., Germany).

[2] = molecular target: T2, CDK20/CycH (Homo sapiens, UniProt Q8IZL9)
T2 construct: purchased Reaction Biology Europe GmbH (formerly ProQinase)
Protocol: as §1

[3] = molecular target: T3, CDK4/CycD3 (Homo sapiens, UniProt P11802)
T3 construct: purchased Reaction Biology Europe GmbH (formerly ProQinase)
Protocol: as §1

[4] = molecular target: T4, IKKα (Homo sapiens, UniProt O15111)
T4 construct: purchased Reaction Biology Europe GmbH (formerly ProQinase)
T4 sequence (O15111 1-745): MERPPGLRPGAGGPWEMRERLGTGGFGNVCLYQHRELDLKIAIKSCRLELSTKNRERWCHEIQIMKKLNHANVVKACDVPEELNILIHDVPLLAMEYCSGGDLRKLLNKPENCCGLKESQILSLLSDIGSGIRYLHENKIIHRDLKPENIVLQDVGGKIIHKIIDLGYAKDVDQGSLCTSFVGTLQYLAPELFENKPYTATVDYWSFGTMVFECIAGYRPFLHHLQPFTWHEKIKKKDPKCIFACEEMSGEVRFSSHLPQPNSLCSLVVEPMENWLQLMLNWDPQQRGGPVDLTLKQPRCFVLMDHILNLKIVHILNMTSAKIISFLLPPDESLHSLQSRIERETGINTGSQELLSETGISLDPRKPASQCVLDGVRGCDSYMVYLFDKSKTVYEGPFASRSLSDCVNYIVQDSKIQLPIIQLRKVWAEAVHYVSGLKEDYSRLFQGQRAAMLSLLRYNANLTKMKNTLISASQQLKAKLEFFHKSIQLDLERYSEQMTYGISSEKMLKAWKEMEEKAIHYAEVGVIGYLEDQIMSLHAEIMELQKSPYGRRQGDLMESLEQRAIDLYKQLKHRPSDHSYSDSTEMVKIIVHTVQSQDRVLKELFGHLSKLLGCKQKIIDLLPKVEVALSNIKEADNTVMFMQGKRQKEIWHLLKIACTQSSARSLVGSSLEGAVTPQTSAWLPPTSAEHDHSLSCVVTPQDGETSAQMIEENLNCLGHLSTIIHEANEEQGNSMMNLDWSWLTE
Protocol: as §1

[5] = molecular target: T5, LYN (Homo sapiens, UniProt P07948)
T5 construct: purchased Reaction Biology Europe GmbH (formerly ProQinase)
Protocol: as §1

[6] = molecular target: T6, NEK4 (Homo sapiens, UniProt P51957)
T6 construct: purchased Reaction Biology Europe GmbH (formerly ProQinase)
Protocol: as §1

[7] = molecular target: T7, TAOK2 (Homo sapiens, UniProt Q9UL54)
T7 construct: purchased Reaction Biology Europe GmbH (formerly ProQinase)
T7 sequence (Q9UL54 1-1235): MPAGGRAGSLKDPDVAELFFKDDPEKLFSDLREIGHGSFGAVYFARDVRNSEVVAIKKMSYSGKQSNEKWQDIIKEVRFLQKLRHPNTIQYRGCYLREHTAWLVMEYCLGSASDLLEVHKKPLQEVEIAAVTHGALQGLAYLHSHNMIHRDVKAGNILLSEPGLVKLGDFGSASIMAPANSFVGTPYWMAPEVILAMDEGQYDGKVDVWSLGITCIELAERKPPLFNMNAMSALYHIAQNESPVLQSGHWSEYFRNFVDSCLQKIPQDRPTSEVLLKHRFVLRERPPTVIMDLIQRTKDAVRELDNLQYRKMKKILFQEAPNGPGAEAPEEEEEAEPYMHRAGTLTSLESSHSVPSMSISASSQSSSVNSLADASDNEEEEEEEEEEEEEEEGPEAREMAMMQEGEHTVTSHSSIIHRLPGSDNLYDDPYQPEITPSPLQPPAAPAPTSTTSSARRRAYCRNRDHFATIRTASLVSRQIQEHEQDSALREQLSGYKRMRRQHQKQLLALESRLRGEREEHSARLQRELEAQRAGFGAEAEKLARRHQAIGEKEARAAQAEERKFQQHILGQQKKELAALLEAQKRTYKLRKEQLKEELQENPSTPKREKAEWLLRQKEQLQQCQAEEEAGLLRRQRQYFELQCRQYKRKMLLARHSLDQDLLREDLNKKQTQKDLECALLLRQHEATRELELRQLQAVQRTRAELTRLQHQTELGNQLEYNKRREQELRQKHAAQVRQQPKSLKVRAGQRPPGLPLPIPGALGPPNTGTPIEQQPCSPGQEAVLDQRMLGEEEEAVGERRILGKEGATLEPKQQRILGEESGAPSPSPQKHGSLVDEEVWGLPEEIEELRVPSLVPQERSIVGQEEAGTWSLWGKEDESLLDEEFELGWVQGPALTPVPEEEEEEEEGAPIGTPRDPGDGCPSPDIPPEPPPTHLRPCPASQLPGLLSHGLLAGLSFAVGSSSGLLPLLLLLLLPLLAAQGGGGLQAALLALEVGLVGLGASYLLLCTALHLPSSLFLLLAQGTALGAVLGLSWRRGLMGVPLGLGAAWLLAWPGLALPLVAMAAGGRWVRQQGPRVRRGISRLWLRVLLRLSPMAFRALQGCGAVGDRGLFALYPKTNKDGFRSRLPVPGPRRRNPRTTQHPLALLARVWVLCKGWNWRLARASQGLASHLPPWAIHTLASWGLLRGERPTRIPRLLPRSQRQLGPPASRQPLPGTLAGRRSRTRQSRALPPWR
Protocol: as §1

[8] = molecular target: T8, YES (Homo sapiens, UniProt P07947)
T8 construct: purchased Reaction Biology Europe GmbH (formerly ProQinase)
Protocol: as §1

T2 sequence (Q8IZL9 whole entry): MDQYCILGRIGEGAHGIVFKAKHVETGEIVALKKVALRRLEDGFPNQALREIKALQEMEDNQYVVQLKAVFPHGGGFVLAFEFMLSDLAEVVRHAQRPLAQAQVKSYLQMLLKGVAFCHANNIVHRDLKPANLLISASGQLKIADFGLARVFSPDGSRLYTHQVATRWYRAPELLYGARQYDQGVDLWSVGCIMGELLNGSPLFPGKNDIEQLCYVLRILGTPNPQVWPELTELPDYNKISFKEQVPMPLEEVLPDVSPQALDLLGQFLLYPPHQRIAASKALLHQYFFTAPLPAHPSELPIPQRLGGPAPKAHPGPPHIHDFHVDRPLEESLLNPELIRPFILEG
T2 sequence (P51946 whole entry partner): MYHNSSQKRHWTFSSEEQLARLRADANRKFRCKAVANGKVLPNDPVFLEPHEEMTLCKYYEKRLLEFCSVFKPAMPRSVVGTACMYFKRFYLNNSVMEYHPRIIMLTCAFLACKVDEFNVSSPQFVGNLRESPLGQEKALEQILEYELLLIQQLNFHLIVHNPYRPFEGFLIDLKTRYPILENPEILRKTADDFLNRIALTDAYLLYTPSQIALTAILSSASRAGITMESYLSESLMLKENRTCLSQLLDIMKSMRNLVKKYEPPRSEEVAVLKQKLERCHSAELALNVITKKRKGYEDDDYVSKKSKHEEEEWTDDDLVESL
T6 sequence (P51957 whole entry): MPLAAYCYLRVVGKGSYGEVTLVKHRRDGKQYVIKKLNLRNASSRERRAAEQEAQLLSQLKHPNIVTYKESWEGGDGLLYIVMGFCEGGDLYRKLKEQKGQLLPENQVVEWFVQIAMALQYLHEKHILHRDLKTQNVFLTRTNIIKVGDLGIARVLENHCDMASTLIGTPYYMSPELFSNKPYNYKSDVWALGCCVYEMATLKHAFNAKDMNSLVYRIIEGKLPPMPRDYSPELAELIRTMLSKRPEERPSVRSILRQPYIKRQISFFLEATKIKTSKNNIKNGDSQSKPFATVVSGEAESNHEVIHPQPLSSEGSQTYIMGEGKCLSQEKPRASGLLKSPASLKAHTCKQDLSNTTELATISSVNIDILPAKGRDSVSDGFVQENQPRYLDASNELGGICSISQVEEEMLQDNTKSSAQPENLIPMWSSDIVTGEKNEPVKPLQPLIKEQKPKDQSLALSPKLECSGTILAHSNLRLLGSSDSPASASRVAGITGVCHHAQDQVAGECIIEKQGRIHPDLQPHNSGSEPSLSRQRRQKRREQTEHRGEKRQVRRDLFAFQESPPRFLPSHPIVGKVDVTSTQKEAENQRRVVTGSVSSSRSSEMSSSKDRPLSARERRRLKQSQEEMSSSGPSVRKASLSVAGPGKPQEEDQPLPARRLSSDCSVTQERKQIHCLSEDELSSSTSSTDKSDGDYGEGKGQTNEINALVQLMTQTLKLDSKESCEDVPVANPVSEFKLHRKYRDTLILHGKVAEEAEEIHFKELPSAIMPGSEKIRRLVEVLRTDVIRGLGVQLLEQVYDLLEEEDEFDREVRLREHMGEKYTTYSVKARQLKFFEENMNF
T5 sequence (P07948 whole entry): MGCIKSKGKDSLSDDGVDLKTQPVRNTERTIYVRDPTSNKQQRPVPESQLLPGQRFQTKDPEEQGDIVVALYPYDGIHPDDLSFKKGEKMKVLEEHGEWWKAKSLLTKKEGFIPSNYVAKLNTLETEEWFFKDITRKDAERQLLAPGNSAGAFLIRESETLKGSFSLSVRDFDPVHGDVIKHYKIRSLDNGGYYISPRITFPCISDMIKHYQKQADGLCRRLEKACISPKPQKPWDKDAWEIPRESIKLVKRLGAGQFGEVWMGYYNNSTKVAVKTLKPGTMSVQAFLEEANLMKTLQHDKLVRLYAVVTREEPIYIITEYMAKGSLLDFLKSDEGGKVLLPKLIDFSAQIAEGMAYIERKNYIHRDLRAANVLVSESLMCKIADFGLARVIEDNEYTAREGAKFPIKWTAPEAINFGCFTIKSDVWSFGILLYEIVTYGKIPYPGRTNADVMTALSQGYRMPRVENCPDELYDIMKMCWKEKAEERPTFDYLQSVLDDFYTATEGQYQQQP
T8 sequence (P07947 whole entry): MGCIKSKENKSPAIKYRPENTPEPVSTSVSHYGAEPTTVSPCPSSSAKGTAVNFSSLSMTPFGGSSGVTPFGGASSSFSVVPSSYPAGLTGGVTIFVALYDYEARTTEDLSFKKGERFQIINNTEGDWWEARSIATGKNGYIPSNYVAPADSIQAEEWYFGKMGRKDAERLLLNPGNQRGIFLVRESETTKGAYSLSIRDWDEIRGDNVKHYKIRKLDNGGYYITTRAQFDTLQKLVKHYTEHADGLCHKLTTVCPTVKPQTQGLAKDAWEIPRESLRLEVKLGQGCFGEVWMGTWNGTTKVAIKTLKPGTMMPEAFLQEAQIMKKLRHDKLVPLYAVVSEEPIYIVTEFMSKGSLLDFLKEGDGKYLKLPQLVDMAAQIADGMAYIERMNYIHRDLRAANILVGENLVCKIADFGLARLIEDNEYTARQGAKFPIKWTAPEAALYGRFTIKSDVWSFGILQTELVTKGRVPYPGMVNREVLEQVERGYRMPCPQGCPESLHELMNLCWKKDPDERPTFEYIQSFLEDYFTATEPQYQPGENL
T3 sequence (P11802 whole entry): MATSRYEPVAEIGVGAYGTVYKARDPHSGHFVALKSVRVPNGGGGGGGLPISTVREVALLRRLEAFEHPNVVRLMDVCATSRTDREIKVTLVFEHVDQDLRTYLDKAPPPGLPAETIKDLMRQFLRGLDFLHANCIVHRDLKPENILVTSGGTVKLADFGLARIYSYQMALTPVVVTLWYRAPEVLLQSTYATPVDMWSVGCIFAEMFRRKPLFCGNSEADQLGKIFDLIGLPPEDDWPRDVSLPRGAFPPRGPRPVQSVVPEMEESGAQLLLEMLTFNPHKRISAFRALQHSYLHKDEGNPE
T3 sequence (P30281 whole entry partner): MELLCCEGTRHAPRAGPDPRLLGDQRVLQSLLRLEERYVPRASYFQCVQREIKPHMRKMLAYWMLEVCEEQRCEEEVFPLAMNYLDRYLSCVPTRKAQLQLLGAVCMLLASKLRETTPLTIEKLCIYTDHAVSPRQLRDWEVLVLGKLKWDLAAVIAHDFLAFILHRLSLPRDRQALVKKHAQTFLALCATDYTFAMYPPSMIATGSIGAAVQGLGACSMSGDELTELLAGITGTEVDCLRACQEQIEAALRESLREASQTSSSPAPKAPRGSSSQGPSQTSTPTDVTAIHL

SMILES | residual kinase activity ([1]; 0.3 µM) | residual kinase activity ([2]; 0.3 µM) | residual kinase activity ([3]; 0.3 µM) | residual kinase activity ([4]; 0.3 µM) | residual kinase activity ([5]; 0.3 µM) | residual kinase activity ([6]; 0.3 µM) | residual kinase activity ([7]; 0.3 µM) | residual kinase activity ([8]; 0.3 µM) | other results
COc1ccnc2[nH]cc(-c3cc(N)nc(N)c3)c12 [meriolin 16] | 95 % of control | 33 % of control | 51 % of control | 16 % of control | 81 % of control | 47 % of control | 89 % of control | 90 % of control | residual kinase activity ([1]; 0.03 µM): 104 % of control; residual kinase activity ([2]; 0.03 µM): 38 % of control; residual kinase activity ([3]; 0.03 µM): 95 % of control; residual kinase activity ([4]; 0.03 µM): 27 % of control; residual kinase activity ([5]; 0.03 µM): 105 % of control; residual kinase activity ([6]; 0.03 µM): 89 % of control; residual kinase activity ([7]; 0.03 µM): 107 % of control; residual kinase activity ([8]; 0.03 µM): 100 % of control
c1ccc(CNc2cc(-c3c[nH]c4ncccc34)ccn2)cc1 [meriolin 36] | 76 % of control | 29 % of control | 34 % of control | 37 % of control | 73 % of control | 84 % of control | 60 % of control | 65 % of control | residual kinase activity ([1]; 3 µM): 41 % of control; residual kinase activity ([2]; 3 µM): 13 % of control; residual kinase activity ([3]; 3 µM): 6 % of control; residual kinase activity ([4]; 3 µM): 13 % of control; residual kinase activity ([5]; 3 µM): 25 % of control; residual kinase activity ([6]; 3 µM): 37 % of control; residual kinase activity ([7]; 3 µM): 19 % of control; residual kinase activity ([8]; 3 µM): 19 % of control
